Measured values published in US12497365B2, “4-pyridinyl formamide compound or derivative thereof, preparation method therefor, herbicidal composition and use thereof” (Qingdao Kingagroot Chemical Compound Co., Ltd., priority 2019, dated 2025).

Legend:
Assay in all cases: Weeding effect in post-emergence stage
Type in all cases: in vivo
Settings in all cases: active ingredient 2000 g/ha, 3 weeks after application, fresh weight control rate
[1] = system: Descurainia sophia
In short: (§1)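 Pot-grown weeds at the 2-3 leaf stage receive a tower spray of test compound at 2000, 1000, 500, 250 or 125 g/ha, formulated in acetone with Tween 80 and methyl oleate synergist. Fresh weight reduction is rated on an activity scale 3 weeks later.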

[2] = system: Chenopodium album
In short: as §1

[3] = system: Abutilon theophrasti
In short: as §1

[4] = system: Amaranthus retroflexus L.
In short: as §1

SMILES	Weeding effect, activity level (growth control rate), Descurainia sophia [1]	Weeding effect, activity level (growth control rate), Chenopodium album [2]	Weeding effect, activity level (growth control rate), Abutilon theophrasti [3]	Weeding effect, activity level (growth control rate), Amaranthus retroflexus L. [4]
O=C(Nc1ncco1)c1ccnc(-c2ccc(F)cc2)c1Cl [Compound 1-1607]	5 (Level 5: growth control rate is above 85%)	5 (Level 5: growth control rate is above 85%)	5 (Level 5: growth control rate is above 85%)	5 (Level 5: growth control rate is above 85%)
C=Cc1ccc(-c2nccc(C(=O)Nc3nnnn3C)c2Cl)cc1 [Compound 1-1918]	5 (Level 5: growth control rate is above 85%)	5 (Level 5: growth control rate is above 85%)	5 (Level 5: growth control rate is above 85%)	5 (Level 5: growth control rate is above 85%)
CN(C)C(=O)c1ccc(-c2nccc(C(=O)Nc3nnnn3C)c2Cl)cc1 [Compound 1-1925]	5 (Level 5: growth control rate is above 85%)	5 (Level 5: growth control rate is above 85%)	5 (Level 5: growth control rate is above 85%)	5 (Level 5: growth control rate is above 85%)
Cn1nnnc1NC(=O)c1ccnc(-c2cccc3c2OC(F)(F)O3)c1Cl [Compound 1-1972]	5 (Level 5: growth control rate is above 85%)	5 (Level 5: growth control rate is above 85%)	5 (Level 5: growth control rate is above 85%)	5 (Level 5: growth control rate is above 85%)
Cn1nnnc1NC(=O)c1ccnc(-c2ccc(CNC(=O)OC(C)(C)C)s2)c1Cl [Compound 1-2004]	5 (Level 5: growth control rate is above 85%)	5 (Level 5: growth control rate is above 85%)	5 (Level 5: growth control rate is above 85%)	5 (Level 5: growth control rate is above 85%)
Cn1nnnc1NC(=O)c1ccnc(-c2ccc[nH]2)c1Cl [Compound 1-2006]	5 (Level 5: growth control rate is above 85%)	5 (Level 5: growth control rate is above 85%)	5 (Level 5: growth control rate is above 85%)	5 (Level 5: growth control rate is above 85%)
Cn1nnnc1NC(=O)c1ccnc(-c2cc3ccccc3o2)c1Cl [Compound 1-2010]	5 (Level 5: growth control rate is above 85%)	5 (Level 5: growth control rate is above 85%)	5 (Level 5: growth control rate is above 85%)	5 (Level 5: growth control rate is above 85%)
Cn1nnnc1NC(=O)c1ccnc(-c2ccc(C#N)cc2)c1F [Compound 1-2016]	5 (Level 5: growth control rate is above 85%)	5 (Level 5: growth control rate is above 85%)	5 (Level 5: growth control rate is above 85%)	5 (Level 5: growth control rate is above 85%)
COc1c(C(=O)Nc2nnnn2C)ccnc1-c1ccc(C#N)cc1 [Compound 1-2029]	5 (Level 5: growth control rate is above 85%)	5 (Level 5: growth control rate is above 85%)	5 (Level 5: growth control rate is above 85%)	5 (Level 5: growth control rate is above 85%)
CN(C)c1c(C(=O)Nc2nnnn2C)ccnc1-c1ccc(Cl)cc1 [Compound 1-2044]	5 (Level 5: growth control rate is above 85%)	5 (Level 5: growth control rate is above 85%)	5 (Level 5: growth control rate is above 85%)	5 (Level 5: growth control rate is above 85%)
CSc1c(C(=O)Nc2nnnn2C)ccnc1-c1ccc(C#N)cc1 [Compound 1-2052]	5 (Level 5: growth control rate is above 85%)	5 (Level 5: growth control rate is above 85%)	5 (Level 5: growth control rate is above 85%)	5 (Level 5: growth control rate is above 85%)
CSc1c(C(=O)Nc2nnnn2C)ccnc1-c1ccc(C(N)=O)cc1 [Compound 1-2053]	5 (Level 5: growth control rate is above 85%)	5 (Level 5: growth control rate is above 85%)	5 (Level 5: growth control rate is above 85%)	5 (Level 5: growth control rate is above 85%)
COc1nccc(C(=O)Nc2nnnn2C)c1Cl [Compound 1-2061]	5 (Level 5: growth control rate is above 85%)	5 (Level 5: growth control rate is above 85%)	5 (Level 5: growth control rate is above 85%)	5 (Level 5: growth control rate is above 85%)
Cn1nnnc1NC(=O)c1ccnc(OCC(F)(F)F)c1Cl [Compound 1-2062]	5 (Level 5: growth control rate is above 85%)	5 (Level 5: growth control rate is above 85%)	5 (Level 5: growth control rate is above 85%)	5 (Level 5: growth control rate is above 85%)
Cn1nnnc1NC(=O)c1ccnc(Oc2ccccc2)c1Cl [Compound 1-2063]	5 (Level 5: growth control rate is above 85%)	5 (Level 5: growth control rate is above 85%)	5 (Level 5: growth control rate is above 85%)	5 (Level 5: growth control rate is above 85%)
Cn1nnnc1NC(=O)c1ccnc(OCc2ccccc2)c1Cl [Compound 1-2064]	5 (Level 5: growth control rate is above 85%)	5 (Level 5: growth control rate is above 85%)	5 (Level 5: growth control rate is above 85%)	5 (Level 5: growth control rate is above 85%)
CSc1nccc(C(=O)Nc2nnnn2C)c1Cl [Compound 1-2065]	5 (Level 5: growth control rate is above 85%)	5 (Level 5: growth control rate is above 85%)	5 (Level 5: growth control rate is above 85%)	5 (Level 5: growth control rate is above 85%)
COc1ccc(CSc2nccc(C(=O)Nc3nnnn3C)c2Cl)cc1 [Compound 1-2069]	5 (Level 5: growth control rate is above 85%)	5 (Level 5: growth control rate is above 85%)	5 (Level 5: growth control rate is above 85%)	5 (Level 5: growth control rate is above 85%)
CCC[S+]([O-])c1nccc(C(=O)Nc2nnnn2C)c1Cl (stereo not drawn) [Compound 1-2070]	5 (Level 5: growth control rate is above 85%)	5 (Level 5: growth control rate is above 85%)	5 (Level 5: growth control rate is above 85%)	5 (Level 5: growth control rate is above 85%)
CCCS(=O)(=O)c1nccc(C(=O)Nc2nnnn2C)c1Cl [Compound 1-2071]	5 (Level 5: growth control rate is above 85%)	5 (Level 5: growth control rate is above 85%)	5 (Level 5: growth control rate is above 85%)	5 (Level 5: growth control rate is above 85%)
Cn1nnnc1NC(=O)c1ccnc(Nc2ccccc2)c1Cl [Compound 1-2075]	5 (Level 5: growth control rate is above 85%)	5 (Level 5: growth control rate is above 85%)	5 (Level 5: growth control rate is above 85%)	5 (Level 5: growth control rate is above 85%)
